Measurements from publication PMC6814258 (Pharmaceutical research, 2019).
Structures can show the parent of a compound that is named as a salt.

Molecular target: human KV7.1 (Homo sapiens, UniProt P51787)
Test: KV7.1 86Rb+ efflux HTS
Format: cell-based
Conditions: 10 μM, n=2, CHO cells, 86Rb+ efflux, normalized to 10 μM chromanol 293B control

Chain of human KV7.1 (P51787 whole entry): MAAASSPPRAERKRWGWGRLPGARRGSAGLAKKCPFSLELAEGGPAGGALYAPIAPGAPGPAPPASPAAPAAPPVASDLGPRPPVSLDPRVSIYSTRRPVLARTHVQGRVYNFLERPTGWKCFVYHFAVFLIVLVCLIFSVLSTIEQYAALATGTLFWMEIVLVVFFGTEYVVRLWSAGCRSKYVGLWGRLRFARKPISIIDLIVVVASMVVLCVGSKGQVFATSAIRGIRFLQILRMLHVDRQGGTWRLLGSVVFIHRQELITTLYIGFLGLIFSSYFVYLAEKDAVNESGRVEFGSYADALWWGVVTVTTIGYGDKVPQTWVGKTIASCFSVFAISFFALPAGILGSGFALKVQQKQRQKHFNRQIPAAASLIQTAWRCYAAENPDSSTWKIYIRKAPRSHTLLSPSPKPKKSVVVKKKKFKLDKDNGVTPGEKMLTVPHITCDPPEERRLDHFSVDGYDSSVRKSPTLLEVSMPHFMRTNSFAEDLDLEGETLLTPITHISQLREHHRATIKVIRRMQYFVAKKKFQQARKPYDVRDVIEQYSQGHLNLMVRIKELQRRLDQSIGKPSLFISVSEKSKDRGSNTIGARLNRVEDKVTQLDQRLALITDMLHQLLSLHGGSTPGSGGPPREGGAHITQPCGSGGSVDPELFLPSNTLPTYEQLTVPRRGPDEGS

Compound	Average percent inhibition at 10 μM (KCNQ1) [%]
C[C@]12CC[C@@H]3c4ccc(O)cc4CC[C@H]3[C@@H]1CC[C@@H]2O [Estradiol-17 beta]	56.3
CC(=O)O[C@H]1CC[C@@]2(C)C(=CC[C@@H]3[C@@H]2CC[C@]2(C)C(=O)CC[C@@H]32)C1 [Dehydroisoandosterone 3-acetate]	52.9

Same assay, conditions: CHO, read-out: Average percent inhibition at 10 μM (KCNQ1)

Compound	inhibition at 10 µM [%]
CCN1CCN(C(=O)N[C@@H](C(=O)N[C@@H]2C(=O)N3[C@@H]2SC(C)(C)[C@@H]3C(=O)O)c2ccccc2)C(=O)C1=O [Piperacillin sodium salt]	43.5
Cc1cccc(N(C)C(=S)Oc2ccc3ccccc3c2)c1 [Tolnaftate]	69.4
CCc1oc2ccccc2c1C(=O)c1cc(Br)c(O)c(Br)c1 [Benzbromarone]	58.1
c1ccc2c(c1)Nc1ccccc1S2 [Phenothiazine]	59.8
COc1ccc(C(=O)c2ccccc2)c(O)c1 [Oxybenzone]	57.4
Fc1ccc([C@@H]2CCNC[C@H]2COc2ccc3c(c2)OCO3)cc1 [Paroxetine Hydrochloride]	59.9
C/C=C(/C(=C/C)c1ccc(O)cc1)c1ccc(O)cc1 [Dienestrol]	61.3
CSc1nc2cc(Cl)c(Oc3cccc(Cl)c3Cl)cc2[nH]1 [Triclabendazole]	76
Clc1ccc(C(Cn2ccnc2)OCc2csc3c(Cl)cccc23)c(Cl)c1 (stereo not shown) [Sertaconazole nitrate]	58.6
C#C[C@]1(O)CC[C@H]2[C@@H]3CCc4cc(O)ccc4[C@H]3CC[C@@]21C [Ethinylestradiol]	75.8
Clc1ccc(COC(Cn2ccnc2)c2ccc(Cl)cc2Cl)cc1 (stereo not shown) [Econazole nitrate]	85.6
CC(C)OC(=O)CCC/C=C\C[C@@H]1[C@@H](CC[C@@H](O)CCc2ccccc2)[C@H](O)C[C@@H]1O [Latanoprost]	63.7
Clc1ccc(CCC(Cn2ccnc2)Sc2c(Cl)cccc2Cl)cc1 (stereo not shown) [Butoconazole nitrate]	67
CCOC(=O)[C@H](CCc1ccccc1)N[C@H]1CCc2ccccc2N(CC(=O)O)C1=O [Benazepril hydrochloride]	44.8
Clc1ccccc1C(c1ccccc1)(c1ccccc1)n1ccnc1 [Clotrimazole]	46.3
Clc1ccc(C(c2ccccc2Cl)C(Cl)Cl)cc1 (stereo not shown) [Mitotane]	49.5
CCOc1ccc(Cc2nccc3cc(OCC)c(OCC)cc23)cc1OCC [Ethaverine hydrochloride]	86.9
COc1cccc(N(C)C(=S)Oc2ccc3c(c2)CCCC3)n1 [Liranaftate]	62.8
C#C[C@]1(OC(C)=O)CC[C@H]2[C@@H]3CCC4=C[C@@H](OC(C)=O)CC[C@@H]4[C@H]3CC[C@@]21C [Ethynodiol diacetate]	88

Molecular target: Nav1.8 (Homo sapiens, UniProt Q9Y5Y9)
Test: Nav1.8 FLIPR HTS
Format: cell-based
Conditions: HEK293, read-out: Average percent inhibition at 10 μM (Nav1.8)

Chain of Nav1.8 (Q9Y5Y9 whole entry): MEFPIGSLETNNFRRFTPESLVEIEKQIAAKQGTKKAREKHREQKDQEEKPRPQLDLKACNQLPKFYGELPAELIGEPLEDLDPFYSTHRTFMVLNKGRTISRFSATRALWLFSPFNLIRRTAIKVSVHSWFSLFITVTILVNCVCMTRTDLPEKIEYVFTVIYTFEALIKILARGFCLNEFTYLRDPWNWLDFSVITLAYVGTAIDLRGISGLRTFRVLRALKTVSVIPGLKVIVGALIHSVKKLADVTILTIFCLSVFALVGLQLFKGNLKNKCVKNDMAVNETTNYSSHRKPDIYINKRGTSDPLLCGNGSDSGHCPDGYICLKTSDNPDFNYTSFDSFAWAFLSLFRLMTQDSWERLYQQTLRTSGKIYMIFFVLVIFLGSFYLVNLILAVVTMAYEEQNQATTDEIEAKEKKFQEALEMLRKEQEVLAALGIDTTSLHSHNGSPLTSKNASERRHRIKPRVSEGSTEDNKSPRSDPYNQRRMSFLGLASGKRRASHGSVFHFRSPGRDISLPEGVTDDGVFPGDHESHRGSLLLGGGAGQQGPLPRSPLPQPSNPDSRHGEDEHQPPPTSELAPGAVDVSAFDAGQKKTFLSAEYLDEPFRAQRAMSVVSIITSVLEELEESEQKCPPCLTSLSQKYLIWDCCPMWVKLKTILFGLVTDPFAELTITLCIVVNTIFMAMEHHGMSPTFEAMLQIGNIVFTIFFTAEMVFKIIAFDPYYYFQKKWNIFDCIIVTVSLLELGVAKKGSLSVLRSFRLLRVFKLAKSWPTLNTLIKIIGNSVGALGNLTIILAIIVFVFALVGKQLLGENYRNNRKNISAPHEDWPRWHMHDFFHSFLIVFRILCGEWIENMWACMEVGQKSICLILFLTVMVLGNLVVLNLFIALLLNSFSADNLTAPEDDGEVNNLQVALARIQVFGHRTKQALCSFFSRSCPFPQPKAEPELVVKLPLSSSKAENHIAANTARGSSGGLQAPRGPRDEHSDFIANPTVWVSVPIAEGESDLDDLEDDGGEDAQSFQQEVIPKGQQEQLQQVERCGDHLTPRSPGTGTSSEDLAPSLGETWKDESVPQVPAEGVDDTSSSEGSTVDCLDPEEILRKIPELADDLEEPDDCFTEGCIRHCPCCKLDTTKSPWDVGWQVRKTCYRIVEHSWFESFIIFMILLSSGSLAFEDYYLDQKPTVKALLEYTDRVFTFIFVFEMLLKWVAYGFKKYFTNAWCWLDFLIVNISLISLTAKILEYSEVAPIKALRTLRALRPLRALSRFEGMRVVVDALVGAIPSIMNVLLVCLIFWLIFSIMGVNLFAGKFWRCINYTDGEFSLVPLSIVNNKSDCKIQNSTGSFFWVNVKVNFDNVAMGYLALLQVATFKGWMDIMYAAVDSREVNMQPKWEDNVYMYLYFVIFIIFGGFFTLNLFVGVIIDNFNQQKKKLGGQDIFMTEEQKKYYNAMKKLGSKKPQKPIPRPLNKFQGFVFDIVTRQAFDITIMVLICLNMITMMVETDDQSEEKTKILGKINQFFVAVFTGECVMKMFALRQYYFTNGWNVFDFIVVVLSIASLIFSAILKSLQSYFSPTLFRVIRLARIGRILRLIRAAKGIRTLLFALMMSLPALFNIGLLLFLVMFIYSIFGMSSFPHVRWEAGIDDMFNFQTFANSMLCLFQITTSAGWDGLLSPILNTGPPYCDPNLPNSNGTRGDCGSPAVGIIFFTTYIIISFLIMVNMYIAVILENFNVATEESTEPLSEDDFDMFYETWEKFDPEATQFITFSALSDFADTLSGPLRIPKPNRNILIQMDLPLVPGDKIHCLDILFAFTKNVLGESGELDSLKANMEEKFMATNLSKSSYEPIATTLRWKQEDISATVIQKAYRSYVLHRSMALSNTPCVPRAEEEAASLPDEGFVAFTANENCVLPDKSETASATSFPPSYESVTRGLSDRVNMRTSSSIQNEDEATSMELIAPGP

Compound	inhibition at 10 µM [%]
O=C1[C@H]2CCCC[C@H]2C(=O)N1CCCCN1CCN(c2nsc3ccccc23)CC1 [Perospirone]	89.7
CC(Cc1ccc(O)cc1)NCC(O)c1cc(O)cc(O)c1 (stereo not shown) [Fenoterol hydrobromide]	78.3
O=C(CCCN1CCC(n2c(O)nc3ccccc32)CC1)c1ccc(F)cc1 [Benperidol]	84.2
C1CCC(C(CC2CCCCN2)C2CCCCC2)CC1 (stereo not shown) [Perhexiline maleate]	79.2
CN(C)CC/C=C1/c2ccccc2Sc2ccc(Cl)cc21 [Chlorprothixene hydrochloride]	77.4
[H]/N=C(/NCCCCC)N/N=C/c1c[nH]c2ccc(OC)cc12 [Tegaserod maleate]	98.3
CCCCNc1ccc(C(=O)OCCOCCOCCOCCOCCOCCOCCOCCOCCOC)cc1 [Benzonatate]	79.9
CNCCC=C1c2ccccc2CCc2ccccc21 [Nortriptyline hydrochloride]	85.9
CCCCc1cc2ccccc2c(OCCN(C)C)n1 [Dimethisoquin hydrochloride]	75.5
NC(=O)OCC(COC(N)=O)c1ccccc1 [Felbamate]	78.6
Cc1cccc(C)c1OCC(=O)N[C@@H](Cc1ccccc1)[C@@H](O)C[C@H](Cc1ccccc1)NC(=O)[C@H](C(C)C)N1CCCNC1=O [Lopinavir]	76.8
COc1ccc(-c2cc(=S)ss2)cc1 [Anethole-trithione]	78.5
CCc1nn(CCCN2CCN(c3cccc(Cl)c3)CC2)c(=O)n1CCOc1ccccc1 [Nefazodone hydrochloride]	88.5
CO[C@]12C[C@@H](COC(=O)c3cncc(Br)c3)CN(C)[C@@H]1Cc1cn(C)c3cccc2c13 [Nicergoline]	82.3
CCC(COC(=O)c1cc(OC)c(OC)c(OC)c1)(c1ccccc1)N(C)C (stereo not shown) [Trimebutine]	88.7
CN(C)CCCOc1nn(Cc2ccccc2)c2ccccc12 [Benzydamine hydrochloride]	83.6
CCN(CC)C(C)CN1c2ccccc2Sc2ccccc21 (stereo not shown) [Ethopropazine hydrochloride]	85.5
CS(=O)(=O)c1ccc([C@@H](O)[C@@H](CF)NC(=O)C(Cl)Cl)cc1 [Florfenicol]	77.5
CN1CCC(=C2c3ccccc3Sc3ccccc32)CC1 [Pimethixene maleate]	88.5
CCCCCCCCNC(C)C(O)c1ccc(SC(C)C)cc1 (stereo not shown) [Suloctidil]	93.8

Compound	inhibition at 10 µM [%]
CC(C)COCC(CN(Cc1ccccc1)c1ccccc1)N1CCCC1 (stereo not shown) [Bepridil hydrochloride]	89.1
CCOC(=O)Nc1ccc2c(c1)N(C(=O)CCN1CCOCC1)c1ccccc1S2 [Moricizine hydrochloride]	75.8
CCN(CC)CCOC(=O)C(c1ccccc1)c1ccccc1 [Adiphenine hydrochloride]	90.4
COc1cc2nc(N3CCN(C(=O)C4COc5ccccc5O4)CC3)nc(N)c2cc1OC (stereo not shown) [Doxazosin mesylate]	76.1
CCN(CC)CC#CCOC(=O)C(O)(c1ccccc1)C1CCCCC1 (stereo not shown) [Oxybutynin chloride]	77.3
CC(CN1c2ccccc2Sc2ccccc21)N(C)C (stereo not shown) [Promethazine hydrochloride]	78.5
CCC(=O)O[C@@](Cc1ccccc1)(c1ccccc1)[C@@H](C)CN(C)C [Levopropoxyphene napsylate]	95.1
COc1ccccc1OCCNCC(O)COc1cccc2[nH]c3ccccc3c12 (stereo not shown) [Carvedilol]	104
CN1CCN(CCCN2c3ccccc3Sc3ccc(C(F)(F)F)cc32)CC1 [Trifluoperazine dihydrochloride]	79.1
C[C@]12CC[C@@H]3c4ccc(O)cc4CC[C@H]3[C@@H]1CCC2=O [Estrone]	78.2
CCOC(=O)C1=C[C@]2(CC)CCCN3CCc4c(n1c1ccccc41)[C@@H]32 [Vinpocetine]	93.4
O=C(CCCN1CCC2(CC1)C(=O)NCN2c1ccccc1)c1ccc(F)cc1 [Spiperone]	82
CNCCCC1c2ccccc2C=Cc2ccccc21 [Protriptyline hydrochloride]	80
O=c1cc(-c2ccc(O)c(O)c2)oc2cc(O)cc(O)c12 [Luteolin]	86.2
CCCCOc1cc(C(=O)NCCN(CC)CC)c2ccccc2n1 [Dibucaine]	79.4
CN(C(=O)CN(CCO)CC(=O)N(C)C(C)(C)Cc1ccccc1)C(C)(C)Cc1ccccc1 [Oxethazaine]	92.9
CC(C)(C)NC(=O)[C@@H]1C[C@@H]2CCCC[C@@H]2CN1C[C@@H](O)[C@H](Cc1ccccc1)NC(=O)[C@H](CC(N)=O)NC(=O)c1ccc2ccccc2n1 [Saquinavir mesylate]	92.8
CC(NCCC(c1ccccc1)c1ccccc1)c1ccccc1 (stereo not shown) [Fendiline hydrochloride]	91.3
COc1ccc(C(=O)c2ccccc2O)c(O)c1 [Dioxybenzone]	100
Fc1ccc(C(c2ccc(F)cc2)N2CCN(C/C=C/c3ccccc3)CC2)cc1 [Flunarizine dihydrochloride]	96.6

Compound	inhibition at 10 µM [%]
CCCCCCNC(=O)n1cc(F)c(=O)[nH]c1=O [Carmofur]	124
CC(C)(C)NC[C@H](O)c1ccc(O)c(CO)c1 [Levalbuterol hydrochloride]	85.3
CCCCOc1ccc(C(=O)CCN2CCCCC2)cc1 [Dyclonine hydrochloride]	99
OCc1cc(C(O)CNCCCCCCOCCCCc2ccccc2)ccc1O (stereo not shown) [Salmeterol]	99.6
CC(C)(C)NCC(O)c1ccc(O)c(CO)c1 (stereo not shown) [Salbutamol]	78
CN(C)CCCN1c2ccccc2Sc2ccccc21 [Promazine hydrochloride]	88.1
O=C(Nc1ccccc1)OCC(CN1CCCCC1)OC(=O)Nc1ccccc1 (stereo not shown) [Diperodon hydrochloride]	92.2
Cc1cccc(C)c1NC(=O)CN1CCN(CCCC(c2ccc(F)cc2)c2ccc(F)cc2)CC1 [Lidoflazine]	92.7
CN(C)CCC=C1c2ccccc2COc2ccccc21 [Doxepin hydrochloride]	88.7
CCCOc1ccc(C(=O)OCCN(CC)CC)cc1N [Proparacaine hydrochloride]	103
C[C@H](N)[C@H](O)c1ccc(O)c(O)c1 [Levonordefrin]	107
CC(COc1ccccc1)N(CCCl)Cc1ccccc1 (stereo not shown) [Phenoxybenzamine hydrochloride]	86.1
O=c1[nH]c2ccccc2n1C1CCN(CCCC(c2ccc(F)cc2)c2ccc(F)cc2)CC1 [Pimozide]	101
CN(C/C=C/c1ccccc1)Cc1cccc2ccccc12 [Naftifine hydrochloride]	96.1
OC(CNCC(O)C1CCc2cc(F)ccc2O1)C1CCc2cc(F)ccc2O1 (stereo not shown) [Nebivolol hydrochloride]	82.7
O=C(CCCN1CC=C(n2c(=O)[nH]c3ccccc32)CC1)c1ccc(F)cc1 [Droperidol]	87.6
CCN(CC)CCOC(=O)C(c1ccccc1)C1CCCCC1 (stereo not shown) [Drofenine hydrochloride]	76.8
CCCCOc1cc(C(=O)OCCN(CC)CC)ccc1N [Benoxinate hydrochloride]	83.7
